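Five compound concentrations were applied to cells in 96-well plates for 48 hours; endpoints were derived by simple linear interpolation of the resulting dose-response curve. GI50 is the concentration that inhibits growth by half.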 Calls of active or inactive are those of the source. Cut-off read from the data, not from the text of the source: active = GI50 up to about 1.1 µM and inactive = higher.

The results in this text go back to ChEMBL document CHEMBL1201862, “PubChem BioAssay data set” (2004).

Common to all, as to assay: inhibition of tumour cell growth, NCI panel, 48 h
Experiment [1] relates to MOLT-4.
The subject of experiment [2] is SR.
Experiment [3] deals with OVCAR-4.
Experiment [4] relates to U-251.
For experiment [5], the system named is BT-549.
Experiment [6] concerns NCI-H23.
Experiment [7] has as its system SF-539.
Experiment [8] relates to TK-10.
Experiment [9] concerns HCT-15.
In experiment [10] the test system is EKVX.
Experiment [11] concerns MDA-N.
The subject of experiment [12] is NCI-H522.
Experiment [13] relates to SK-MEL-28.
Experiment [14] has as its system SK-OV-3.
The test system of experiment [15] is T47D.
Experiment [16] relates to HCC 2998.
Experiment [17] deals with CCRF-CEM.
In experiment [18] the test system is MDA-MB-435.
Experiment [19] deals with SK-MEL-2.
For experiment [20], the system named is HL-60.

With `O=[N+]([O-])c1ccc(NN=C2CN3CCN(C2)c2ccccc23)c([N+](=O)[O-])c1`, the GI50 in experiment [1], in experiment [2], in experiment [3], in experiment [4], in [5] and in [6] was > 100 µM (inactive) each time. Also, the GI50 was > 100 µM (inactive) in experiment [7]; > 100 µM (inactive) in experiment [8]; > 100 µM in experiment [9]; 40.6 µM (inactive) in experiment [10]; > 100 µM (inactive) in experiment [11]; > 100 µM (inactive) in experiment [12]. In addition, the GI50 in experiment [13], in experiment [14], in experiment [15], in experiment [16], in experiment [17] and in experiment [18] was > 100 µM (inactive) in each case.
Regarding `c1ccc2c(c1)nc1n2CCNC1`, the GI50 in experiment [1], in experiment [2], in experiment [19], in experiment [3], in experiment [20] and in experiment [4] was > 100 µM (inactive) each time. In addition, the GI50 in experiment [5] was > 100 µM (inactive); in [6], > 100 µM (inactive); in experiment [7] it was > 100 µM (inactive); in [8] it was > 100 µM (inactive); in experiment [9], > 100 µM; in [10], > 100 µM (inactive). Besides, the GI50 in experiment [11], in [13], in experiment [14], in experiment [15], in experiment [16] and in experiment [17] was > 100 µM (inactive) throughout. In addition, in experiment [18], the GI50 is > 100 µM (inactive).
As to `CC(=O)O[C@H]1C#C/C=C\C#CC[C@@H]2C(=O)N[C@@H]12`, the GI50 was 0.231 µM (active) in [1]; 67.8 µM (inactive) in experiment [19]; > 100 µM (inactive) in [3]; 1.99 µM (inactive) in experiment [20]; 20.9 µM (inactive) in experiment [4]; 30.7 µM (inactive) in [5]. Moreover, the GI50 was 11.2 µM (inactive) in [6]; 0.726 µM (active) in [7]; > 59.7 µM (inactive) in experiment [8]; 22.4 µM in [9]; > 100 µM (inactive) in experiment [10]; 81.7 µM (inactive) in [11]. The GI50 in experiment [12] was 19.1 µM (inactive); in [13], 93.3 µM (inactive); in experiment [14], 57.8 µM (inactive); in [15] it was 52.7 µM (inactive); in experiment [16], 25.1 µM (inactive); in experiment [17], 4.13 µM (inactive). Besides, the GI50 in [18] was > 100 µM (inactive).
On to `Cc1ccc(Nc2c3c(c(C#N)c4nc5ccccc5n24)CCCC3)cc1`, for which the GI50 in experiment [1] is 3.73 µM (inactive); in [19] it was 13.1 µM (inactive); in experiment [3], 20.7 µM (inactive); in experiment [20], 5.53 µM (inactive); in experiment [4], 17.5 µM (inactive); in experiment [5], 35.8 µM (inactive). Further, the GI50 in experiment [6] is 22.4 µM (inactive); in [7] it was 19.4 µM (inactive); in experiment [8], 25.5 µM (inactive); in experiment [9], 16.9 µM; in experiment [10], 17.3 µM (inactive); in experiment [11] it was 28.7 µM (inactive). The GI50 was 14.3 µM (inactive) in [12]; 22.1 µM (inactive) in experiment [13]; 38 µM (inactive) in [14]; 13.7 µM (inactive) in [15]; 17.6 µM (inactive) in experiment [16]; 6.05 µM (inactive) in [17]. Also, the GI50 in experiment [18] was 18.2 µM (inactive).
With `O=C(NC(Cc1c[nH]c2ccccc12)C(=O)O)/C(=C/c1ccccc1O)NC(=O)c1ccccc1` (stereo not drawn), the GI50 is > 100 µM (inactive) in experiment [1]; > 100 µM (inactive) in experiment [2]; 57.5 µM (inactive) in experiment [3]; > 100 µM (inactive) in experiment [20]; 39.1 µM (inactive) in experiment [4]; 18.4 µM (inactive) in [5]. In addition, the GI50 in [6] was 51.6 µM (inactive); in experiment [7] it was 16.1 µM (inactive); in experiment [8] it was 37.7 µM (inactive); in [9] it was 25.6 µM; in experiment [10], 29.2 µM (inactive); in [11], 7.05 µM (inactive). Besides, the GI50 is 20.4 µM (inactive) in experiment [12]; > 100 µM (inactive) in experiment [13]; 22.3 µM (inactive) in experiment [14]; 12.1 µM (inactive) in experiment [15]; 42.2 µM (inactive) in [16]; > 100 µM (inactive) in [17]. Moreover, the GI50 in experiment [18] was 18.9 µM (inactive).
Turning to `CN(C)c1ccc(/C=C(\NC(=O)c2ccccc2)c2nn(C)c(=O)o2)cc1`, the GI50 in experiment [1] is 35.3 µM (inactive); in experiment [19], 52.5 µM (inactive); in experiment [3], 28.9 µM (inactive); in [20], 34.6 µM (inactive); in [4] it was 24 µM (inactive); in [5], > 100 µM (inactive). For the same molecule, the GI50 in experiment [6] is > 100 µM (inactive); in experiment [7], 33.5 µM (inactive); in experiment [8], > 100 µM (inactive); in experiment [9] it was > 100 µM; in experiment [10], > 100 µM (inactive); in experiment [11], 53.6 µM (inactive). Besides, the GI50 is 17.6 µM (inactive) in experiment [12]; > 100 µM (inactive) in [13]; > 100 µM (inactive) in experiment [14]; > 100 µM (inactive) in [15]; > 100 µM (inactive) in [16]; 34.7 µM (inactive) in [17]. Besides, the GI50 in experiment [18] was 69 µM (inactive).
With `O=C1C2C(C(=O)N1c1ccccc1)C1(c3ccccc3)CCC2(C(=O)c2ccccc2)O1` (stereo not drawn), the GI50 in experiment [1] is 9.82 µM (inactive); in [19], > 10 µM (inactive); in experiment [3], > 10 µM (inactive); in experiment [20] it was > 10 µM (inactive); in [4] it was > 10 µM (inactive); in experiment [5], > 10 µM (inactive). Moreover, the GI50 in [6] was > 10 µM (inactive); in experiment [7], > 10 µM (inactive); in experiment [8] it was > 10 µM (inactive); in experiment [9] it was > 10 µM; in [10], > 10 µM (inactive); in [11], > 10 µM (inactive). Further, the GI50 in experiment [12], in experiment [13], in experiment [14], in [15], in experiment [16] and in experiment [17] was > 10 µM (inactive) in each case. For the same molecule, the GI50 in [18] was > 10 µM (inactive).
As to `COC1CC(N)C(O)C(C)O1` (stereo not drawn), the GI50 in [1], in experiment [2], in experiment [3], in experiment [20], in experiment [4] and in experiment [5] was > 100 µM (inactive) each time. Moreover, the GI50 is > 100 µM (inactive) in experiment [6]; > 100 µM (inactive) in experiment [7]; > 100 µM in [9]; > 100 µM (inactive) in experiment [10]; > 100 µM (inactive) in experiment [11]; > 100 µM (inactive) in experiment [12]. Also, the GI50 in experiment [13], in [14], in [15], in experiment [16], in experiment [17] and in experiment [18] was > 100 µM (inactive) each time.
With `O=C1/C(=C/c2cccc3ccccc23)CCc2ccc([N+](=O)[O-])cc21`, the GI50 in experiment [1] was > 100 µM (inactive); in [2], > 10 µM (inactive); in experiment [20], 8.83 µM (inactive); in experiment [4], 14.1 µM (inactive); in experiment [5], 16.1 µM (inactive); in [6], 67.5 µM (inactive). The GI50 in experiment [7] was 21.5 µM (inactive); in [8], 27.2 µM (inactive); in [9] it was 17.9 µM; in experiment [10] it was 47 µM (inactive); in experiment [11] it was 8.81 µM (inactive); in [13], 16.6 µM (inactive). Also, the GI50 is 21.6 µM (inactive) in experiment [14]; 21 µM (inactive) in [15]; 83.8 µM (inactive) in [16]; 60.8 µM (inactive) in experiment [17]; 6.71 µM (inactive) in experiment [18].
In the case of `CC(=O)Nc1ccc(NC(=O)c2c(Cl)c(Cl)c(Cl)c(Cl)c2-c2nc3ccccc3[nH]2)cc1`, the GI50 is 21.5 µM (inactive) in experiment [1]; 27.2 µM (inactive) in experiment [2]; 45.2 µM (inactive) in [3]; 25.9 µM (inactive) in experiment [20]; 43.1 µM (inactive) in experiment [5]; 32.5 µM (inactive) in experiment [6]. Also, the GI50 was 38.5 µM (inactive) in experiment [7]; 85.1 µM in experiment [9]; 33.3 µM (inactive) in experiment [10]; 35.3 µM (inactive) in experiment [11]; 36.7 µM (inactive) in [12]; 40.2 µM (inactive) in experiment [13]. In addition, the GI50 in experiment [14] was 63.4 µM (inactive); in experiment [15], 25.7 µM (inactive); in experiment [16] it was 33.6 µM (inactive); in experiment [17], 32.7 µM (inactive); in experiment [18], 35.1 µM (inactive).
For the molecule `O=C(O)/C(=C/c1ccccc1)c1ccccc1`, the GI50 in experiment [1], in experiment [19], in [3], in experiment [20], in [4] and in experiment [5] was > 100 µM (inactive) throughout. Besides, the GI50 is > 100 µM (inactive) in [6]; > 100 µM (inactive) in experiment [7]; > 100 µM (inactive) in [8]; > 100 µM in [9]; > 100 µM (inactive) in [10]; > 100 µM (inactive) in experiment [11]. Also, the GI50 in experiment [12], in experiment [13], in experiment [14], in [15], in [16] and in experiment [17] was > 100 µM (inactive) each time. Further, in [18], the GI50 is > 100 µM (inactive).
